Results as given in ChEMBL document CHEMBL4732251, “Synthesis and evaluation of the epithelial-to- mesenchymal inhibitory activity of indazole-derived imidazoles as dual ALK5/p38α MAP inhibitors” (Eur J Med Chem, 2021).
Active and inactive are the calls of the source. The calls are words filed in the database; no cut-off is given here.

Experiments:
[1] = target: Mitogen-activated protein kinase 14 (Homo sapiens, UniProt Q16539); assay: Inhibition of recombinant human p38alpha expressed in Escherichia coli assessed as incoporation of [33]Pi after 60 mins in presence of [gamma-33P]-ATP by microplate scintillation counter method
Mitogen-activated protein kinase 14, sequence (Q16539 whole entry, the tested form may be a part): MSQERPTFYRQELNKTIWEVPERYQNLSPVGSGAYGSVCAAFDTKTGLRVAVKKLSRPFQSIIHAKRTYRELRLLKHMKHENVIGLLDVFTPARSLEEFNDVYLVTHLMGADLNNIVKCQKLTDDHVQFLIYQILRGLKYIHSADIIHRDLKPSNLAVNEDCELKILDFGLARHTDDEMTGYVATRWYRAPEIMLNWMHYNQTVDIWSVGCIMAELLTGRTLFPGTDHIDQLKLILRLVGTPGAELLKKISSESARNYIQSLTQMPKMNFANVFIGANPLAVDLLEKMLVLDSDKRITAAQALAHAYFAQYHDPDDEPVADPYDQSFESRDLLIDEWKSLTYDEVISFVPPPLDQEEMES

TGF-beta receptor type-1 = target: T1, TGF-beta receptor type-1 (Homo sapiens, UniProt P36897); assay: Inhibition of recombinant human GST-fused ALK5 expressed in baculovirus infected Sf9 cells assessed as incoporation of [33]Pi after 60 mins in presence of [gamma-33P]-ATP by microplate scintillation counter method
T1 sequence (P36897 whole entry): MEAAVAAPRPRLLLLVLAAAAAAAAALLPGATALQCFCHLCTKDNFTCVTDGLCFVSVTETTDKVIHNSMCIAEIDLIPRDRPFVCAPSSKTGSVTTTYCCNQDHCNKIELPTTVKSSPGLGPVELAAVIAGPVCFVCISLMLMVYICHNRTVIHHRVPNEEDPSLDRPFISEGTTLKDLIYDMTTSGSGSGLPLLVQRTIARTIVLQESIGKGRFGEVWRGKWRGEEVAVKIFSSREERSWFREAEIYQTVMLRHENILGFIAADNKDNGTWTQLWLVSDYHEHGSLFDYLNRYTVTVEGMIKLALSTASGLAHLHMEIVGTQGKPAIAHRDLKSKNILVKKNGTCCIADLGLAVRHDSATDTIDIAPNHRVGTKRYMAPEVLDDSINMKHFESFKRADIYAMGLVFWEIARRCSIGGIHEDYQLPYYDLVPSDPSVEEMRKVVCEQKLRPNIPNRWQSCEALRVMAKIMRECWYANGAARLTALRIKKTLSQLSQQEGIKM

[2] = target: T2, TGF-beta receptor type-1 (Homo sapiens) (UniProt P36897); assay: Potency index, ratio of LY-2157299 IC50 to test compound IC50 for recombinant human GST-fused ALK5 expressed in baculovirus infected Sf9 cells assessed as incoporation of [33]Pi after 60 mins in presence of [gamma-33P]-ATP by microplate scintillation counter method
T2 sequence (whole entry): T1 sequence (P36897 whole entry)

[3] = target: T2, TGF-beta receptor type-1 (Homo sapiens); assay: Potency index, ratio of EW-7197 IC50 to test compound IC50 for recombinant human GST-fused ALK5 expressed in baculovirus infected Sf9 cells assessed as incoporation of [33]Pi after 60 mins in presence of [gamma-33P]-ATP by microplate scintillation counter method
U-87 MG [4] = assay: Inhibition of epithelial-mesenchymal transition in human U-87MG cells assessed as reduction in TGF-beta stimulated Slug protein expression after 48 hrs by Western blot anlaysis; format: functional, cell-based; conditions: U-87MG ATCC, dose 0.5-1 µM
U-87MG ATCC [5] = assay: Inhibition of TGF-beta-induced morphological changes in human U-87MG cells at 0.1 to 1 uM after 48 hrs; format: functional, cell-based; conditions: dose 0.1-1 µM
U-87MG ATCC [6] = assay: Reversal of TGF-beta-induced epithelial-mesenchymal transition in human U-87MG cells assessed as reduction in N-cadherin protein level at 0.1 to 0.5 uM after 48 hrs by Western blotting analysis; format: functional, cell-based; conditions: dose 0.1-0.5 µM
U-87MG ATCC [7] = assay: Reversal of TGF-beta-induced epithelial-mesenchymal transition in human U-87MG cells assessed as reduction in vimentin protein level at 0.1 to 0.5 uM after 48 hrs by Western blotting analysis; format: functional, cell-based; conditions: dose 0.1-0.5 µM
U-87 MG [8] = assay: Inhibition of epithelial-mesenchymal transition in human U-87MG cells assessed as reduction in TGF-beta stimulated nuclear translocation of slug at 1 uM pretreated with compound followed by TGFbeta stimulation and measured after 48 hrs by immunofluorescence assay; format: functional, cell-based; conditions: U-87MG ATCC
U-87MG ATCC [9] = assay: Reversal of TGF-beta-induced epithelial-mesenchymal transition in human U-87MG cells assessed as downregulation of N-cadherin expression at 1 uM after 48 hrs by immunofluorescence assay; format: functional, cell-based
U-87MG ATCC [10] = assay: Reversal of TGF-beta-induced epithelial-mesenchymal transition in human U-87MG cells assessed as reduction in N-cadherin mRNA level at 1 uM after 48 hrs by RT-PCR analysis; format: functional, cell-based
U-87MG ATCC [11] = assay: Reversal of TGF-beta-induced epithelial-mesenchymal transition in human U-87MG cells assessed as reduction in vimentin mRNA level at 1 uM after 48 hrs by RT-PCR analysis; format: functional, cell-based
U-87 MG [12] = assay: Inhibition of TGF-beta-induced cell migration in human U-87MG cells at 1 uM incubated for 36 hrs by bright field microscopy based wound healing assay; format: functional; conditions: U-87MG ATCC
U-87MG ATCC [13] = assay: Inhibition of TGF-beta-induced cell invasion in human U-87MG cells at 1 uM incubated for 24 hrs by crystal violet staining based matrigel transwell assay; format: functional

Compound | IC50 [1] [nM] | IC50 (TGF-beta receptor type-1) [nM] | Ratio IC50 [2] | other results
Cc1cccc(-c2[nH]c(CNc3ccccc3F)nc2-c2ccc3[nH]ncc3c2)n1 | 20 | 5 |  | 
Cc1cccc(-c2[nH]c(CNc3ccc(F)cc3)nc2-c2ccc3[nH]ncc3c2)n1 | 52 | 6 | 3.8 | 
Cc1cccc(-c2[nH]c(CNc3ccccc3)nc2-c2ccc3[nH]ncc3c2)n1 | 13 | 4 | 32.3 | Ratio IC50 [3]: 3.5
Cc1cccc(-c2[nH]c(CNc3ccccc3C)nc2-c2ccc3c(cnn3C)c2)n1 | 71 | 24 | 3.8 | 
Cc1cccc(-c2[nH]c(CNc3ccccc3C)nc2-c2ccc3[nH]ncc3c2)n1 | 23 | 5 |  | 
Cc1cccc(-c2[nH]c(CNc3ccccc3F)nc2-c2ccc3c(cnn3C)c2)n1 | 95 | 13 |  | 
Cc1cccc(-c2nn3c(c2-c2ccnc4ccc(C(N)=O)cc24)CCC3)n1 |  |  |  | inhibition (U-87 MG [4]): Dose-dependent effect; inhibition (U-87MG ATCC [5]): Active; Activity (U-87MG ATCC [6]): Active; Activity (U-87MG ATCC [7]): Active
Cc1cccc(-c2[nH]c(CNc3ccccc3)nc2-c2ccc3c(cnn3C)c2)n1 | 66 | 14 | 3.8 | 
Cc1ccc(NCc2nc(-c3ccc4c(cnn4C)c3)c(-c3cccc(C)n3)[nH]2)cc1 | 565 | 34 | 3.8 | 
Cc1cccc(NCc2nc(-c3ccc4[nH]ncc4c3)c(-c3cccc(C)n3)[nH]2)c1 | 32 | 8 | 3.8 | 
Cc1ccc(NCc2nc(-c3ccc4[nH]ncc4c3)c(-c3cccc(C)n3)[nH]2)cc1 | 329 | 9 |  | 
Cc1cccc(-c2[nH]c(CNc3ccc(F)cc3)nc2-c2ccc3c(cnn3C)c2)n1 | 112 | 16 | 3.8 | 
Cc1cccc(NCc2nc(-c3ccc4c(cnn4C)c3)c(-c3cccc(C)n3)[nH]2)c1 | 23 | 10 |  | 
Cc1cccc(-c2[nH]c(CNc3cccc(F)c3)nc2-c2ccc3c(cnn3C)c2)n1 | 26 | 11 | 3.8 | 
Cc1cccc(-c2[nH]c(CNc3cccc(F)c3)nc2-c2ccc3[nH]ncc3c2)n1 | 4 | 4 |  | inhibition (U-87 MG [4]): Dose-dependent effect; inhibition (U-87 MG [8]): Active; inhibition (U-87MG ATCC [5]): Active; Activity (U-87MG ATCC [9]): Active; Activity (U-87MG ATCC [6]): Active; Activity (U-87MG ATCC [7]): Active; Activity (U-87MG ATCC [10]): Active; Activity (U-87MG ATCC [11]): Active; inhibition (U-87 MG [12]): Active; inhibition (U-87MG ATCC [13]): Active
